Assay results reported in patent US20250319133A1, “METHODS FOR IMPROVING BONE HEALTH WITH BOVINE MILK EXOSOME-ENRICHED PRODUCTS AND VITAMIN K2” (ABBOTT LABORATORIES, priority 2022, published 2025).

Test system: MC3T3-E1 cells
Assay: Alizarin Red S (ARS) extracellular mineralization assay, calcium deposits
Type: cell-based, murine
Conditions: 12 days in differentiation medium, 1 μM vitamin K2 and/or 15 μg/ml bovine milk exosomes
Protocol: Alizarin Red S (ARS) assay is an anthraquinone dye used to visualize and evaluate extracellular calcium deposits in cell culture. In embodiments of the invention, mineralization activity of differentiated osteoblasts are evaluated through ARS assay. To begin the assay, MC3T3-E1 pre-osteoblast cells were grown in MEM (minimum essential medium) culture medium supplemented with 10% v/v FBS (fetal bovine serum), […], 100 units/ml penicillin and 0.1 mg/ml streptomycin in a 5% CO2 and an atmosphere with 95% humidity. For osteogenic differentiation, these pre-osteoblast cells were seeded in 24-well plates at a density of 3×10^4 cells/well in complete medium for 1 day. The medium was then replaced by MEM containing 10% v/v FBS, […], 100 units/ml penicillin, 0.1 mg/ml streptomycin, […], and 50 μg/ml L-ascorbic acid. Specifically, three groups of MC3T3-E1 pre-osteoblast cells were treated. Group 1 was treated with 1 μM vitamin K2. Group 2 was treated with 15 μg/ml bovine milk exosomes. Group 3 was treated with a combination of 1 μM vitamin K2 and 15 μg/ml bovine milk exosomes. Group 4 was included as an untreated control group. In addition to analyzing Runx2 and LC3 molecular markers in Example 2, cell Groups 1-3 as described in Example 2 were treated in the presence of a differentiation medium for 12 days. […]

For `CC(C)=CCC/C(C)=C/CC/C(C)=C/CC/C(C)=C/CC1=C(C)C(=O)c2ccccc2C1=O` [vitamin K2], the “calcium deposits (extracellular matrix mineralization), ARS micrographs” value was “abundant calcium deposits”.
